Test results: patent publication US9988400B2 (Genentech, Inc., priority 2013, dated 2018)
pEC50: −log10 of the molar value.

Biological target: T1, HEK cells stably transfected with tetracycline inducible hNR1 and hNR2A (Homo sapiens, UniProt Q05586+Q12879)
T1 construct: expressed in transfected cells; host or cells: HEK cells, stably transfected, tetracycline/doxycycline inducible
Assay: Assay 1: Cell-Based Assay, cytosolic calcium response to positive allosteric modulators (with 30 μM glycine and 300 nM L-glutamate, EC30)
Settings: Table 2; for pEC50: cytosolic calcium response, with 30 μM glycine and 300 nM L-glutamate (EC30), — = no plateau was reached; for Max %: responses scaled relative to 100 μM L-glutamate maximal response (100%) and 0 μM L-glutamate (0%)
Method in brief: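 Cells induced 24 h with 7.5 μg mL^−1 doxycycline plus 500 μM (+)-ketamine, loaded 60 min at 37 °C with calcium dye in Mg-free HBSS (1.8 mM Ca, probenecid, 10 μM (+)-ketamine, pH 7.15). Peak RFU over 5 min after compound addition, scaled to 100 μM L-glutamate (100%) and 0 μM (0%); four-parameter Hill fit for EC50, max % if no plateau.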

T1 sequence (Q12879 23-1464, other chains not shown): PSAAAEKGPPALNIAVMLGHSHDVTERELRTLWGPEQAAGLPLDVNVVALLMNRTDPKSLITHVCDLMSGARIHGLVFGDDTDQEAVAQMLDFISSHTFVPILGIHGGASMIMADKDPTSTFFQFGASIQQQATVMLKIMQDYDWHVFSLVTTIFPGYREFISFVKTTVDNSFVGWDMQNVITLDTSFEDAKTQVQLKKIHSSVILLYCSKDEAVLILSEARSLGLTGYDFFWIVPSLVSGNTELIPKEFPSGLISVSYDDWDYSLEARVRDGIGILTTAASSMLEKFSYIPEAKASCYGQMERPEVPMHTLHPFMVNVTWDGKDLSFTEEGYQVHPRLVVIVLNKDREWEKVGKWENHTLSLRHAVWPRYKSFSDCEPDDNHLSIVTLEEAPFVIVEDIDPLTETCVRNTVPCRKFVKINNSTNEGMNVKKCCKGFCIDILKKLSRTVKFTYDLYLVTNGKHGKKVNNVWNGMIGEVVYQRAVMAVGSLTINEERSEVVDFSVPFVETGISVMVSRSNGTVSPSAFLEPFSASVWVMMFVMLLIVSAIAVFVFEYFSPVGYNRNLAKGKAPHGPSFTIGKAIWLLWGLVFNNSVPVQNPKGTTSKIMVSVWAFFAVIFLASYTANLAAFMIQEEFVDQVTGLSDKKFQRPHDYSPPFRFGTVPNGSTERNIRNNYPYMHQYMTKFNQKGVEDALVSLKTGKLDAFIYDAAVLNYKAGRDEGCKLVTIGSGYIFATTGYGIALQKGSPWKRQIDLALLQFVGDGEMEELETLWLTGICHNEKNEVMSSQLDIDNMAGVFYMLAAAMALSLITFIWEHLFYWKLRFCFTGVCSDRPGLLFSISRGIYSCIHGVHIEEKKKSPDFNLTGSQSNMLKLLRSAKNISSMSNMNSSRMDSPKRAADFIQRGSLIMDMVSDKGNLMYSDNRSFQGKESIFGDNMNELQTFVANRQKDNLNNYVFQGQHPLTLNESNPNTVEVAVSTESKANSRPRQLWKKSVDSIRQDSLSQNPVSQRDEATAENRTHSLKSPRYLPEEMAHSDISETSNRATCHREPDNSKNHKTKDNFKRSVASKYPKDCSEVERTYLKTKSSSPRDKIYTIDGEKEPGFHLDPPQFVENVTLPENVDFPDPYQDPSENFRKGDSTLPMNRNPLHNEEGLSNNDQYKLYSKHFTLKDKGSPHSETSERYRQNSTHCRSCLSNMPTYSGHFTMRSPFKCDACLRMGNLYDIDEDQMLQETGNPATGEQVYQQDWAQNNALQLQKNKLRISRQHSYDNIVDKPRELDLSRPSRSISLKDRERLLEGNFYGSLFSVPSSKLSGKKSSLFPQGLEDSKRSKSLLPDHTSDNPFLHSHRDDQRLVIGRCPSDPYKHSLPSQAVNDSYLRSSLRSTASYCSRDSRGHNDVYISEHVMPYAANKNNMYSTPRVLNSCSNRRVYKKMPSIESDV

Structure (SMILES)	pEC50	Max %
CC(=O)c1c(C)sc2nc(Cn3nc(C(F)(F)F)cc3C3CC3)cc(=O)n12 [Example 18.2, 3-acetyl-7-((5-cyclopropyl-3-(trifluoromethyl)-1H-pyrazol-1-yl)methyl)-2-methyl-5H-thiazolo[3,2-a]pyrimidin-5-one]	5.66	144%
CC(=O)c1c(C)sc2nc(Cn3nc(C4CC4)cc3C(F)(F)F)cc(=O)n12 [Example 18.3, 3-acetyl-7-((3-cyclopropyl-5-(trifluoromethyl)-1H-pyrazol-1-yl)methyl)-2-methyl-5H-thiazolo[3,2-a]pyrimidin-5-one]	4.60	129%
Cc1sc2nc(Cn3ccc(C(F)(F)F)n3)cc(=O)n2c1C(C)(C)O [Example 18.4, 3-(2-hydroxypropan-2-yl)-2-methyl-7-((3-(trifluoromethyl)-1H-pyrazol-1-yl)methyl)-5H-thiazolo[3,2-a]pyrimidin-5-one]	–	127%
Cc1sc2nc(Cn3nc(C)c4cc(F)ccc43)cc(=O)n2c1C(C)O (stereo not drawn) [Example 18.5, 7-((5-fluoro-3-methyl-1H-indazol-1-yl)methyl)-3-(1-hydroxyethyl)-2-methyl-5H-thiazolo[3,2-a]pyrimidin-5-one]	–	40.7%
Cc1sc2nc(C(C)n3nc(C(F)(F)F)cc3C3CC3)cc(=O)n2c1C1(C)CC1CO (stereo not drawn) [Example 19.2, 7-(1-(5-cyclopropyl-3-(trifluoromethyl)-1H-pyrazol-1-yl)ethyl)-3-(2-(hydroxymethyl)-1-methylcyclopropyl)-2-methyl-5H-thiazolo[3,2-a]pyrimidin-5-one]	–	64.2%
Cc1sc2nc(Cc3cccc(C#N)c3)cc(=O)n2c1C1CC1CO (stereo not drawn) [Example 20.1, 3-((3-(trans-2-(hydroxymethyl)cyclopropyl)-2-methyl-5-oxo-5H-thiazolo[3,2-a]pyrimidin-7-yl)methyl)benzonitrile]	5.51	137%
Cc1sc2nc(Cc3cccc(C#N)c3)c(F)c(=O)n2c1C1CC1CO (stereo not drawn) [Example 20.2, 3-((6-fluoro-3-(2-(hydroxymethyl)cyclopropyl)-2-methyl-5-oxo-5H-thiazolo[3,2-a]pyrimidin-7-yl)methyl)benzonitrile]	5.13	145%
Cc1sc2nc(Cc3ccc(C(F)(F)F)cc3)cc(=O)n2c1C1CC1CO (stereo not drawn) [Example 20.11, 3-(2-(hydroxymethyl)cyclopropyl)-2-methyl-7-(4-(trifluoromethyl)benzyl)-5H-thiazolo[3,2-a]pyrimidin-5-one]	4.51	78.7%
CNC(=O)c1c(C)sc2nc(Cc3cccc(C#N)c3)cc(=O)n12 [Example 21.1, 7-(3-cyanobenzyl)-N,2-dimethyl-5-oxo-5H-thiazolo[3,2-a]pyrimidine-3-carboxamide]	–	96.6%
CNC(=O)c1c(C)sc2nc(Cc3cccc(C#N)c3F)cc(=O)n12 [Example 21.2, 7-(3-cyano-2-fluorobenzyl)-N,2-dimethyl-5-oxo-5H-thiazolo[3,2-a]pyrimidine-3-carboxamide]	4.67	133%
CCNC(=O)c1c(C)sc2nc(Cc3cccc(Cl)c3F)cc(=O)n12 [Example 21.3, 7-(3-chloro-2-fluorobenzyl)-N-ethyl-2-methyl-5-oxo-5H-thiazolo[3,2-a]pyrimidine-3-carboxamide]	5.12	131%
CNC(=O)c1c(C)sc2nc(Cc3cccc(C(F)(F)F)c3F)cc(=O)n12 [Example 21.4]	5.13	129%
CCNC(=O)c1c(C)sc2nc(Cc3cccc(C)c3F)cc(=O)n12 [Example 21.5, N-ethyl-7-(2-fluoro-3-methylbenzyl)-2-methyl-5-oxo-5H-thiazolo[3,2-a]pyrimidine-3-carboxamide]	4.72	124%
CCNC(=O)c1c(C)sc2nc(Cc3cc(C#N)ccc3Cl)cc(=O)n12 [Example 21.6, 7-(2-chloro-5-cyanobenzyl)-N-ethyl-2-methyl-5-oxo-5H-thiazolo[3,2-a]pyrimidine-3-carboxamide]	4.34	114%
